Test results taken from patent US7674819B2 (Warner-Lambert Company LLC, priority 2005, dated 2010).

biological target: T1, hAR (Homo sapiens, UniProt P10275); test: Competitive binding of 3H-DHT to baculovirus/Sf9 generated hAR extracts; details: IC50, concentration at which one half of maximum binding of 1 nM 3H-DHT to hAR is inhibited; one hour at 4° C.; mean of multiple tests
T1 sequence (P10275 1-920): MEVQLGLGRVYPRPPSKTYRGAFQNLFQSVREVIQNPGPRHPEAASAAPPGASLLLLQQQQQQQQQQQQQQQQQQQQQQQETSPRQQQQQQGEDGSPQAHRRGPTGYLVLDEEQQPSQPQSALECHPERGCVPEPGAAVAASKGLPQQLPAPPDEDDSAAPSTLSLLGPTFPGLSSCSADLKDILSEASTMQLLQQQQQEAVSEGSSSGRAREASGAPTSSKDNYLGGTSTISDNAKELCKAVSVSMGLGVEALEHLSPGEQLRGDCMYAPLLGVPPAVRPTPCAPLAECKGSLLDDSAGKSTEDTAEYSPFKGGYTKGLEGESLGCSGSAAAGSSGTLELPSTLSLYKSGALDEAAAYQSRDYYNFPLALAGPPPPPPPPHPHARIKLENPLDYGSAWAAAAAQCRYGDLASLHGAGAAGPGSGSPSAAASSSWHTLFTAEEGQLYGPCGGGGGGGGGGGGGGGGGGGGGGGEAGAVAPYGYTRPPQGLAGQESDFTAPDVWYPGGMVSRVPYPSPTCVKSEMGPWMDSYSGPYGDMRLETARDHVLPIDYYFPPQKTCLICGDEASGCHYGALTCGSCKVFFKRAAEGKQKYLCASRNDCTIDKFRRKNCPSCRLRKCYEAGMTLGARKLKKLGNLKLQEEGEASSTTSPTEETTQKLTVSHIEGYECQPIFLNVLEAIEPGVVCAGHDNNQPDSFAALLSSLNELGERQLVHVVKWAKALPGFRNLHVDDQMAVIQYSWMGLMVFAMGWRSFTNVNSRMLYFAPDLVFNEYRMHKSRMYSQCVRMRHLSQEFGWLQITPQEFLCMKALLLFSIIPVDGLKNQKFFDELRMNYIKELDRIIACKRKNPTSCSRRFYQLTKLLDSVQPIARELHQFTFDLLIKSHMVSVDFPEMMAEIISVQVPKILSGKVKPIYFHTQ
Description: The description below describes how the assay was carried out.
Competitive binding analysis was performed on baculovirus/Sf9 generated hAR extracts in the presence or absence of different concentrations of test agent and a fixed concentration of ^3H-dihydrotestosterone (^3H-DHT) as tracer. This binding assay method is a modification of a protocol previously described (Liao S., et. al. J. Steroid Biochem. 20:11-17 1984). Briefly, progressively decreasing concentrations of compounds are incubated in the presence of hAR extract (Chang et al. P.N.A.S. Vol. 89, pp. […], 1992), hydroxylapatite, and 1 nM^3H-DHT for one hour at 4° C. Subsequently, the binding reactions are washed three times to completely remove excess unbound ^3H-DHT. hAR bound ^3H-DHT levels are determined in the presence of compounds (i.e. competitive binding) and compared to levels bound when no competitor is present (i.e. maximum binding). Compound binding affinity to the hAR is expressed as the concentration of compound at which one half of the maximum binding is inhibited.

| Compound | IC50 |
| --- | --- |
| CC(c1nnc(-c2ccccc2)o1)N1CC(C)(C)C(Oc2ccc(C#N)c(C(F)(F)F)c2)C1=O (centres unmarked) [Example 128, 4-[4,4-Dimethyl-2-oxo-1-[1-(5-phenyl-[1,3,4]oxadiazol-2-yl)-ethyl]-pyrrolidin-3-yloxy]-2-trifluoromethyl-benzonitrile] | 82 nM |
| Cc1ccc(-c2nnc(C(C)N3CC(C)(C)C(Oc4ccc(C#N)c(C(F)(F)F)c4)C3=O)o2)cc1 (centres unmarked) [Example 129, 4-[4,4-Dimethyl-2-oxo-1-[1-(5-p-tolyl-[1,3,4]oxadiazol-2-yl)-ethyl]-pyrrolidin-3-yloxy]-2-trifluoromethyl-benzonitrile] | 63 nM |
| CC(c1nnc(-c2ccc(O)cc2O)o1)N1CC(C)(C)C(Oc2ccc(C#N)c(C(F)(F)F)c2)C1=O (centres unmarked) [Example 132, 4-(1-{1-[5-(2,4-dihydroxy-phenyl)-[1,3,4]oxadiazol-2-yl]-ethyl}-4,4-dimethyl-2-oxo-pyrrolidin-3-yloxy)-2-trifluoromethyl-benzonitrile] | 52 nM |
| COc1ccccc1-c1nnc(C(C)N2CC(C)(C)C(Oc3ccc(C#N)c(C(F)(F)F)c3)C2=O)o1 (centres unmarked) [Example 133, 4-(1-{1-[5-(2-methoxy-phenyl)-[1,3,4]oxadiazol-2-yl]-ethyl}-4,4-dimethyl-2-oxo-pyrrolidin-3-yloxy)-2-trifluoromethyl-benzonitrile] | 60 nM |
| COc1cccc(-c2nnc(C(C)N3CC(C)(C)C(Oc4ccc(C#N)c(C(F)(F)F)c4)C3=O)o2)c1 (centres unmarked) [Example 134, 4-(1-{1-[5-(3-methoxy-phenyl)-[1,3,4]oxadiazol-2-yl]-ethyl}-4,4-dimethyl-2-oxo-pyrrolidin-3-yloxy)-2-trifluoromethyl-benzonitrile] | 76 nM |
| COc1ccc(-c2nnc(C(C)N3CC(C)(C)C(Oc4ccc(C#N)c(C(F)(F)F)c4)C3=O)o2)cc1 (centres unmarked) [Example 135, 4-(1-{1-[5-(4-methoxy-phenyl)-[1,3,4]oxadiazol-2-yl]-ethyl}-4,4-dimethyl-2-oxo-pyrrolidin-3-yloxy)-2-trifluoromethyl-benzonitrile] | 44 nM |

same assay, conditions: concentration at which one half of maximum binding of 1 nM 3H-DHT to hAR is inhibited; one hour at 4° C.; mean of multiple tests; read-out: IC50

| Compound | IC50 |
| --- | --- |
| Cc1ccc(S(=O)(=O)N2CC(C)(C)C(Oc3ccc(C#N)c(C(F)(F)F)c3)C2=O)s1 (centres unmarked) [Example 85, 4-[4,4-Dimethyl-1-(5-methyl-thiophene-2-sulfonyl)-2-oxo-pyrrolidin-3-yloxy]-2-trifluoromethyl-benzonitrile] | 233 nM |
| Cc1nc(C)c(S(=O)(=O)N2CC(C)(C)C(Oc3ccc(C#N)c(C(F)(F)F)c3)C2=O)s1 (centres unmarked) [Example 89, 4-[1-(2,4-Dimethyl-thiazole-5-sulfonyl)-4,4-dimethyl-2-oxo-pyrrolidin-3-yloxy]-2-trifluoromethyl-benzonitrile] | 281 nM |
| CCCCS(=O)(=O)N1CC(C)(C)C(Oc2ccc(C#N)c(C(F)(F)F)c2)C1=O (centres unmarked) [Example 90, 4-[1-(Butane-1-sulfonyl)-4,4-dimethyl-2-oxo-pyrrolidin-3-yloxy]-2-trifluoromethyl-benzonitrile] | 309 nM |
| CC1(C)CN(S(=O)(=O)c2ccccc2C#N)C(=O)C1Oc1ccc(C#N)c(C(F)(F)F)c1 (centres unmarked) [Example 91, 4-[1-(2-Cyano-benzenesulfonyl)-4,4-dimethyl-2-oxo-pyrrolidin-3-yloxy]-2-trifluoromethyl-benzonitrile] | 508 nM |
| Cc1cc(S(=O)(=O)N2CC(C)(C)C(Oc3ccc(C#N)c(C(F)(F)F)c3)C2=O)c(C)s1 (centres unmarked) [Example 92, 4-[1-(2,5-Dimethyl-thiophene-3-sulfonyl)-4,4-dimethyl-2-oxo-pyrrolidin-3-yloxy]-2-trifluoromethyl-benzonitrile] | 334 nM |
| COC(=O)c1ccc(S(=O)(=O)N2CC(C)(C)C(Oc3ccc(C#N)c(C(F)(F)F)c3)C2=O)o1 (centres unmarked) [Example 100A, 5-[3-(4-Cyano-3-trifluoromethyl-phenoxy)-4,4-dimethyl-2-oxo-pyrrolidine-1-sulfonyl]-furan-2-carboxylic acid methyl ester] | 242 nM |
| COc1cc(OC2C(=O)N(S(C)(=O)=O)CC2(C)C)ccc1C#N (centres unmarked) [Example 100D, 4-(1-Methanesulfonyl-4,4-dimethyl-2-oxo-pyrrolidin-3-yloxy)-2-methoxy-benzonitrile] | 555 nM |
| CCC(CC)C(=O)N1CC(C)(C)C(Oc2ccc(C#N)c(C(F)(F)F)c2)C1=O (centres unmarked) [Example 100E, 4-[1-(2-Ethyl-butyryl)-4,4-dimethyl-2-oxo-pyrrolidin-3-yloxy]-2-trifluoromethyl-benzonitrile] | 372 nM |
| CC1(C)CN(C2CCC2)C(=O)C1Oc1ccc(C#N)c(C(F)(F)F)c1 (centres unmarked) [Example 100F, 4-(1-Cyclobutyl-4,4-dimethyl-2-oxo-pyrrolidin-3-yloxy)-2-trifluoromethyl-benzonitrile] | 243 nM |
| CCCC(=O)N1CC(C)(C)C(Oc2ccc(C#N)c(C(F)(F)F)c2)C1=O (centres unmarked) [Example 102, 4-(1-Butyryl-4,4-dimethyl-2-oxo-pyrrolidin-3-yloxy)-2-trifluoromethyl-benzonitrile] | 418 nM |
| Cc1noc(C)c1C(=O)N1CC(C)(C)C(Oc2ccc(C#N)c(C(F)(F)F)c2)C1=O (centres unmarked) [Example 106, 4-[1-(3,5-Dimethyl-isoxazole-4-carbonyl)-4,4-dimethyl-2-oxo-pyrrolidin-3-yloxy]-2-trifluoromethyl-benzonitrile] | 342 nM |
| CC1(C)CN(C(=O)c2cccs2)C(=O)C1Oc1ccc(C#N)c(C(F)(F)F)c1 (centres unmarked) [Example 108, 4-[4,4-Dimethyl-2-oxo-1-(thiophene-2-carbonyl)-pyrrolidin-3-yloxy]-2-trifluoromethyl-benzonitrile] | 370 nM |
| Cc1ccccc1-c1nnc(CN2CC(C)(C)C(Oc3ccc(C#N)c(C(F)(F)F)c3)C2=O)o1 (centres unmarked) [Example 111, 4-[4,4-Dimethyl-2-oxo-1-(5-o-tolyl-[1,3,4]oxadiazol-2-ylmethyl)-pyrrolidin-3-yloxy]-2-trifluoromethyl-benzonitrile] | 239 nM |
| CC1(C)CN(Cc2nnc(-c3cccc(Cl)c3)o2)C(=O)C1Oc1ccc(C#N)c(C(F)(F)F)c1 (centres unmarked) [Example 120, 4-{1-[5-(3-Chloro-phenyl)-[1,3,4]oxadiazol-2-ylmethyl]-4,4-dimethyl-2-oxo-pyrrolidin-3-yloxy}-2-trifluoromethyl-benzonitrile] | 347 nM |
| Cc1cccc(-c2nnc(CN3CC(C)(C)C(Oc4ccc(C#N)c(C(F)(F)F)c4)C3=O)o2)c1 (centres unmarked) [Example 122, 4-[4,4-Dimethyl-2-oxo-1-(5-m-tolyl-[1,3,4]oxadiazol-2-ylmethyl)-pyrrolidin-3-yloxy]-2-trifluoromethyl-benzonitrile] | 271 nM |
| CCOc1cccc(-c2nnc(CN3CC(C)(C)C(Oc4ccc(C#N)c(C(F)(F)F)c4)C3=O)o2)c1 (centres unmarked) [Example 124, 4-{1-[5-(3-Ethoxy-phenyl)-[1,3,4]oxadiazol-2-ylmethyl]-4,4-dimethyl-2-oxo-pyrrolidin-3-yloxy}-2-trifluoromethyl-benzonitrile] | 404 nM |
| CC1(C)CN(Cc2nnc(-c3ccc(Cl)cc3)o2)C(=O)C1Oc1ccc(C#N)c(C(F)(F)F)c1 (centres unmarked) [Example 125, 4-{1-[5-(4-Chloro-phenyl)-[1,3,4]oxadiazol-2-ylmethyl]-4,4-dimethyl-2-oxo-pyrrolidin-3-yloxy}-2-trifluoromethyl-benzonitrile] | 250 nM |
